Where a name gives a salt, the structure may show the parent alone.
Molecular target: T1, human mAChR M4 (Homo sapiens, UniProt P08173)
T1 sequence (P08173 1-479): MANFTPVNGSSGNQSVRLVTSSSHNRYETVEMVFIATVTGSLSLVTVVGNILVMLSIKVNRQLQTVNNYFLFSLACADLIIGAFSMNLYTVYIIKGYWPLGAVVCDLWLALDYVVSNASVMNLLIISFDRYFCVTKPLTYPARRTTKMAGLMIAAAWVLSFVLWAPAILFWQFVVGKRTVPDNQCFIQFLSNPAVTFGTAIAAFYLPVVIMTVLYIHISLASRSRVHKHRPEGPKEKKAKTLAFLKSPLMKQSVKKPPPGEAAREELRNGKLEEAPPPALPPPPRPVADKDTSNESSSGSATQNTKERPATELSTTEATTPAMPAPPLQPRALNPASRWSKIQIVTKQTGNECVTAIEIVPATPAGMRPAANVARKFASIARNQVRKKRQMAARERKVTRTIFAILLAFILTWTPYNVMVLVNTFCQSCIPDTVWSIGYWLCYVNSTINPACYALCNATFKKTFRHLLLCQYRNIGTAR
Test: mAChR M4 cell-based functional assay (calcium flux), human M4
Conditions: Table 10; for EC50: Human M4 EC50 (nM); for Emax: % ACh maximum at 30 μM

[1] = calcium flux, PAM activity with EC20 acetylcholine

SMILES	EC50 [1] [nM]	Emax [%]	EC50 (unit μM (bounds)) [nM]
Cc1c(Cl)cnc2sc3c(N4CC(c5ccncc5)C4)ncnc3c12 [Compound 224, 8-chloro-9-methyl-4-[3-(4-pyridyl)azetidin-1-yl]pyrido [3′,2′:4,5]thieno[3,2-d] pyrimidine]	102	57.6	–
Cc1c(Cl)cnc2sc3c(NC4CN(c5ncc(F)cn5)C4)ncnc3c12 [Compound 225, 8-chloro-N-[1-(5-fluoropyrimidin-2-yl)azetidin-3-yl]-9-methyl-pyrido [3′,2′:4,5]thieno[3,2-d] pyrimidin-4-amine]	841	63	–
Cc1c(Cl)cnc2sc3c(NC4(C)CC4)ncnc3c12 [Compound 226, 8-chloro-9-methyl-N-(1-methylcyclopropyl) pyrido[3′,2′:4,5]thieno [3,2-d]pyrimidin-4-amine]	481	49	–
Cc1c(Cl)cnc2sc3c(NC4CC4(C)C)ncnc3c12 (centres unmarked) [Compound 227, 8-chloro-N-(2,2-dimethylcyclopropyl)-9-methyl-pyrido[3′,2′:4,5] thieno[3,2-d] pyrimidin-4-amine]	665	56.2	–
Cc1c(Cl)cnc2sc3c(NC4CCC4)ncnc3c12 [Compound 228, 8-chloro-N-cyclobutyl-9-methyl-pyrido [3′,2′:4,5]thieno[3,2-d] pyrimidin-4-amine]	3230	70	–
Cc1c(Cl)cnc2sc3c(NCc4ccc(C(=O)N(C)C)cc4)ncnc3c12 [Compound 229, 4-[[(8-chloro-9-methyl-pyrido [3′,2′:4,5]thieno[3,2-d]pyrimidin-4-yl)amino]methyl]-N,N-dimethyl-benzamide]	1920	54.5	–
COc1cc(CNc2ncnc3c2sc2ncc(Cl)c(C)c23)cc(OC)c1 [Compound 230, 8-chloro-N-[(3,5-dimethoxyphenyl)methyl]-9-methyl-pyrido [3′,2′:4,5]thieno[3,2-d] pyrimidin-4-amine]	–	37.3	> 10000
Cc1c(Cl)cnc2sc3c(NC4CN(c5cc(Cl)ncc5Cl)C4)ncnc3c12 [Compound 231, 8-chloro-N-[1-(2,5-dichloro-4-pyridyl)azetidin-3-yl]-9-methyl-pyrido [3′,2′:4,5]thieno[3,2-d] pyrimidin-4-amine]	3710	44.3	–
Cc1c(Cl)cnc2sc3c(NCc4ccc(CN5CCOCC5)cc4)ncnc3c12 [Compound 232, 8-chloro-9-methyl-N-[[4-(morpholinomethyl)phenyl]methyl]pyrido [3′,2′:4,5]thieno[3,2-d] pyrimidin-4-amine]	9780	69.8	–
Cc1c(Cl)cnc2sc3c(NCc4ccc5c(c4)CC(C)(C)O5)ncnc3c12 [Compound 233, 8-chloro-N-[(2,2-dimethyl-3H-benzofuran-5-yl)methyl]-9-methyl-pyrido [3′,2′:4,5]thieno[3,2-d] pyrimidin-4-amine]	5510	40.6	–
Cc1c(Cl)cnc2sc3c(NCc4ccc5c(c4)COC5)ncnc3c12 [Compound 234, 8-chloro-N-(1,3-dihydroisobenzofuran-5-ylmethyl)-9-methyl-pyrido [3′,2′:4,5]thieno[3,2-d] pyrimidin-4-amine]	5580	56.1	–
Cc1c(Cl)cnc2sc3c(NCc4cnc5c(c4)CCC5)ncnc3c12 [Compound 235, 8-chloro-N-(6,7-dihydro-5H-cyclopenta[b]pyridin-3-ylmethyl)-9-methyl-pyrido [3′,2′:4,5]thieno[3,2-d] pyrimidin-4-amine]	2890	31.8	–
COc1ccc(C2CC2Nc2ncnc3c2sc2ncc(Cl)c(C)c23)cc1 (centres unmarked) [Compound 236, 8-chloro-N-[2-(4-methoxyphenyl)cyclopropyl]-9-methyl-pyrido [3′,2′:4,5]thieno[3,2-d] pyrimidin-4-amine dihydrochloride]	5660	61.2	–
Cc1c(Cl)cnc2sc3c(NCc4ccc(S(C)(=O)=O)cc4)ncnc3c12 [Compound 237, 8-chloro-9-methyl-N-[(4-methylsulfonylphenyl)methyl]pyrido [3′,2′:4,5]thieno[3,2-d] pyrimidin-4-amine dihydrochloride]	1320	54.5	–
Cc1ncc(CNc2ncnc3c2sc2ncc(Cl)c(C)c23)cn1 [Compound 238, 8-chloro-9-methyl-N-[(2-methylpyrimidin-5-yl)methyl]pyrido [3′,2′:4,5]thieno[3,2-d] pyrimidin-4-amine dihydrochloride]	382	61	–
Cc1nc2sc3c(NC4CN(c5ccnc(C6(O)CCC6)c5)C4)ncnc3c2c(C)c1Cl [Compound 239, 1-[4-[3-[(8-chloro-7,9-dimethyl-pyrido [3′,2′:4,5]thieno[3,2-d]pyrimidin-4-yl)amino]azetidin-1-yl]-2-pyridyl]cyclobutanol]	1920	72.3	–
Cc1nc2oc3c(NC4CN(c5ncc(C(F)(F)F)cn5)C4)ncnc3c2c(C)c1Cl [Compound 241, 8-chloro-7,9-dimethyl-N-[1-[5-(trifluoromethyl)pyrimidin-2-yl]yl]azetidin-3-yl]pyrido [3′,2′:4,5]furo[3,2-d] pyrimidin-4-amine hydrochloride]	1010	39.7	–
Cc1nc2oc3c(NC4CC4c4ccc(F)c(F)c4)ncnc3c2c(C)c1Cl (centres unmarked) [Compound 247, 8-chloro-N-[2-(3,4-difluorophenyl)cyclopropyl]-7,9-dimethyl-pyrido [3′,2′:4,5]furo[3,2-d] pyrimidin-4-amine hydrochloride]	7840	70	–
Cc1nc2oc3c(NCc4ccc(S(C)(=O)=O)cc4)ncnc3c2c(C)c1Cl [Compound 248, 8-chloro-7,9-dimethyl-N-[(4-methylsulfonylphenyl)methyl]pyrido[3′,2′:4,5] furo[3,2-d]pyrimidin-4-amine hydrochloride]	1250	45.5	–
Cc1nc2oc3c(NCc4ccc(C(C)(C)O)cc4)ncnc3c2c(C)c1Cl [Compound 251, 2-[4-[[(8-chloro-7,9-dimethyl-pyrido [3′,2′:4,5]furo[3,2-d]pyrimidin-4-yl)amino]methyl]phenyl]propan-2-ol]	1160	61.8	–
COc1ccc(CNc2ncnc3c2oc2nc(C)c(Cl)c(C)c23)cc1F [Compound 253, 8-chloro-N-[(3-fluoro-4-methoxy-phenyl)methyl]-7,9-dimethyl-pyrido [3′,2′:4,5]furo[3,2-d] pyrimidin-4-amine hydrochloride]	–	41.9	> 10000
Cc1nc2sc3c(N4CCC(F)(F)C4)ncnc3c2c(C)c1Cl [Compound 255, 8-chloro-4-(3,3-difluoropyrrolidin-1-yl)-7,9-dimethyl-pyrido [3′,2′:4,5]thieno[3,2-d] pyrimidine hydrochloride]	2340	73	–
Cc1nc2sc3c(N4CC5CC5C4)ncnc3c2c(C)c1Cl (centres unmarked) [Compound 257, 4-(3-azabicyclo[3.1.0]hexan-3-yl)-8-chloro-7,9-dimethyl-pyrido [3′,2′:4,5]thieno[3,2-d] pyrimidine hydrochloride]	1010	64.4	–
Cc1nc2sc3c(N4CCC(F)C4)ncnc3c2c(C)c1Cl (centres unmarked) [Compound 258, 8-chloro-4-(3-fluoropyrrolidin-1-yl)-7,9-dimethyl-pyrido [3′,2′:4,5]thieno[3,2-d] pyrimidine hydrochloride]	1510	64.9	–
Cc1nc2sc3c(N4CC5(COC5)C4)ncnc3c2c(C)c1Cl [Compound 260, 6-(8-chloro-7,9-dimethyl-pyrido [3′,2′:4,5]thieno[3,2-d]pyrimidin-4-yl)-2-oxa-6-azaspiro[3.3]heptane hydrochloride]	–	70.9	–
Cc1nc2sc3c(N4CC(F)(F)C4)ncnc3c2c(C)c1Cl [Compound 261, 8-chloro-4-(3,3-difluoroazetidin-1-yl)-7,9-dimethyl-pyrido [3′,2′:4,5]thieno[3,2-d] pyrimidine hydrochloride]	3920	76.2	–
Cc1nc2sc3c(N4CC(c5ccncc5)C4)ncnc3c2c(C)c1Cl [Compound 262, 8-chloro-7,9-dimethyl-4-[3-(4-pyridyl)azetidin-1-yl]pyrido[3′,2′:4,5] thieno[3,2-d]pyrimidine dihydrochloride]	1520	83.8	–
Cc1nc2sc3c(NC4CN(c5ncc(F)cn5)C4)ncnc3c2c(C)c1Cl [Compound 263, 8-chloro-N-[1-(5-fluoropyrimidin-2-yl)azetidin-3-yl]-7,9-dimethyl-pyrido[3′,2′:4,5] thieno[3,2-d]pyrimidin-4-amine hydrochloride]	9520	72.6	–
Cc1nc2sc3c(NC4CCC4)ncnc3c2c(C)c1Cl [Compound 266, 8-chloro-N-cyclobutyl-7,9-dimethyl-pyrido [3′,2′:4,5]thieno[3,2-d] pyrimidin-4-amine hydrochloride]	1660	55.5	–
COc1ccc(CNc2ncnc3c2sc2nc(C)c(Cl)c(C)c23)cc1OC [Compound 267, 8-chloro-N-[(3,4-dimethoxyphenyl)methyl]-7,9-dimethyl-pyrido[3′,2′:4,5]thieno [3,2-d]pyrimidin-4-amine hydrochloride]	–	33.6	> 10000

Source: patent US10239887B2, “Positive allosteric modulators of the muscarinic acetylcholine receptor M4” (Vanderbilt University, priority 2016, dated 2019)
